# In publication PMC8881077 (Journal of Enzyme Inhibition and Medicinal Chemistry, 2022):
# Like-named read-outs stand apart in the source and are kept apart here.
# Columns and labels:
# ratAChE = target: T1, ratAChE (Rattus norvegicus, UniProt P37136); assay: biochemical; details: for SI: Selectivity Index = IC50 (BuChE)/IC50 (AChE), rat enzymes; for IC50: from 5% rat cortex homogenate
# T1 construct: AChE from 5% rat cortex homogenate or human erythrocytes (Sigma Co.); from tissue; host or cells: 5% rat cortex homogenate
# T1 sequence (P37136 32-614): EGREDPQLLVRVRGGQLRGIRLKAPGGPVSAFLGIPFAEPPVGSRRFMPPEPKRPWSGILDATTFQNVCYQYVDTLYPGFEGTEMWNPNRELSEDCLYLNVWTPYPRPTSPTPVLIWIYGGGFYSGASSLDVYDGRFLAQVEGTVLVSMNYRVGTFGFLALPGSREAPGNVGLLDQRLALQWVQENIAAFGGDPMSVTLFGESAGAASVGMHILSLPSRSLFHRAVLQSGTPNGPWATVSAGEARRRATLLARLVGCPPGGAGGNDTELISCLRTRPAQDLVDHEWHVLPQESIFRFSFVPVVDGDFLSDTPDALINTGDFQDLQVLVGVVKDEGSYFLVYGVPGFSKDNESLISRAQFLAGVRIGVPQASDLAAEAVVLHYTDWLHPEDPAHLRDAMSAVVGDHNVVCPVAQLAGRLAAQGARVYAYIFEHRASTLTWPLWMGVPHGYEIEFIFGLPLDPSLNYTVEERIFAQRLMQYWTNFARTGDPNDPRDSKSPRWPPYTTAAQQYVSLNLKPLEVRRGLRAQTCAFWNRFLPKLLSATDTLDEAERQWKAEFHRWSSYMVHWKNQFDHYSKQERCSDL
# Protocol: (§1) The AChE and BuChE inhibitory activities of the synthesised compounds were evaluated using the Ellman assay with slight modification. AChE from 5% rat cortex homogenate or human erythrocytes (Sigma Co.). BuChE from rat serum or human serum (Sigma Co.).
# huAChE = huAChE (Homo sapiens, UniProt P22303); assay: biochemical; type: biochemical; design: AChE from 5% rat cortex homogenate or human erythrocytes (Sigma Co.); purchased Sigma Co; host or cells: human erythrocytes; details: for SI: Selectivity Index = IC50 (BuChE)/IC50 (AChE), human enzymes; for IC50: from human erythrocytes, read-out: IC50 ± SD huAChE
# huAChE, sequence (P22303 32-617 isoform P22303-2 limits assumed): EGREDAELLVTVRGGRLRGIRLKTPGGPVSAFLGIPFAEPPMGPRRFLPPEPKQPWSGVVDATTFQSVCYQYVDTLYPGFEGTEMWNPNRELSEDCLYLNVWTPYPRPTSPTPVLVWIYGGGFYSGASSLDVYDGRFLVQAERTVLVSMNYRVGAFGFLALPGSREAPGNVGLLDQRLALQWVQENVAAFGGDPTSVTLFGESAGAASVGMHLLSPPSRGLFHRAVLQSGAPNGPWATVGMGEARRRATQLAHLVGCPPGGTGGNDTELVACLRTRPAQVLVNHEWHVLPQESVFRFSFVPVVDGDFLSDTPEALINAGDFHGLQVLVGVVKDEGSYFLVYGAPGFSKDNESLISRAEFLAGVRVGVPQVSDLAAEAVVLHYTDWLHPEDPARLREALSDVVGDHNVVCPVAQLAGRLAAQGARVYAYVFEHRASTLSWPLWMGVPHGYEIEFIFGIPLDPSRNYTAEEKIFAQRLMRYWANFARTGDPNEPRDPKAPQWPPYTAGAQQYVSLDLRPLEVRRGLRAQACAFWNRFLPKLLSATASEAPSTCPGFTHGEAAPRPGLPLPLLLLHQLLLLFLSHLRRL
# Protocol: as §1
# ratBuChE = target: T2, ratBuChE (Rattus norvegicus, UniProt Q9JKC1); assay: ratBuChE inhibition, modified Ellman's method; type: biochemical
# T2 construct: BuChE from rat serum or human serum (Sigma Co.); from tissue; host or cells: rat serum
# T2 sequence (Q9JKC1 24-597): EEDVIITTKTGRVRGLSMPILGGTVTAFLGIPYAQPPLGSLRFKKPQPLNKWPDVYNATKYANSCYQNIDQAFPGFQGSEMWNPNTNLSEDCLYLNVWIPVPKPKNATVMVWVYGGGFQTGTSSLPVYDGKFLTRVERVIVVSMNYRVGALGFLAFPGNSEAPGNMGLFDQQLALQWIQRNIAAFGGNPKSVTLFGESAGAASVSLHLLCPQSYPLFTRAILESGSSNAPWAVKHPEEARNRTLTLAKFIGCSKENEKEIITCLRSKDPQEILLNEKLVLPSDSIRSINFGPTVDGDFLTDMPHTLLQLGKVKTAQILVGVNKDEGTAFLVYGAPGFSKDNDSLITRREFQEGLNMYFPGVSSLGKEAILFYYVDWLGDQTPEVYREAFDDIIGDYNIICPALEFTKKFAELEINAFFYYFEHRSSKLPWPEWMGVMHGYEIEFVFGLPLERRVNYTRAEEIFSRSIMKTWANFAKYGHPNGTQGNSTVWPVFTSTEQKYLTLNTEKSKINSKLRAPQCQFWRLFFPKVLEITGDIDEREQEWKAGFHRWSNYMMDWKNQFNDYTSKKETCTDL
# Protocol: as §1
# huBuChE = target: T3, huBuChE (Homo sapiens, UniProt P06276); assay: biochemical; type: biochemical; details: from human serum; read-out: IC50 ± SD huBuChE
# T3 construct: BuChE from rat serum or human serum (Sigma Co.); purchased Sigma Co; host or cells: human serum
# T3 sequence (P06276 29-602): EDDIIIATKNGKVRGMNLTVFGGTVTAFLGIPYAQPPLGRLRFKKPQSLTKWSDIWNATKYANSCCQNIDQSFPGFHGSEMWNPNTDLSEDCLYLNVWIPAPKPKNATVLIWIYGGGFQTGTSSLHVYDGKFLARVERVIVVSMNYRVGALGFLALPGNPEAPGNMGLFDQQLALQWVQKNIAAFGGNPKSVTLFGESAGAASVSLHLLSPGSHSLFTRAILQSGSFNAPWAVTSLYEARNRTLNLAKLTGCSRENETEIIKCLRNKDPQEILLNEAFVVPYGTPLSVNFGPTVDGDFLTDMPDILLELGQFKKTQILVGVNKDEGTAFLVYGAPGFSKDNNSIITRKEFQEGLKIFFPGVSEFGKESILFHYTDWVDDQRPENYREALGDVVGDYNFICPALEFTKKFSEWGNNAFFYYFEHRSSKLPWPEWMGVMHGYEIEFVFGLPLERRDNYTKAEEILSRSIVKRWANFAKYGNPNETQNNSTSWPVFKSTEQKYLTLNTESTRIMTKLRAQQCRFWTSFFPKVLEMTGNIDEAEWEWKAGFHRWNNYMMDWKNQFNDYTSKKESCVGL
# Protocol: as §1
# [1] = for ORAC: Trolox as standard
# Protocol: The skeleton compounds naringenin and apigenin were also evaluated for comparison purposes, and vitamin E analogue Trolox was used as a standard.
# The antioxidant potency of target compounds was tested using an oxygen radical absorbance capacity fluorescein (ORAC-FL) assay.
# in vitro = details: PAMPA
# Aβ1–42 [2] = target: T4, Aβ1–42 (Homo sapiens, UniProt P05067); assay: Self-induced Aβ1–42 aggregation, Thioflavin T fluorescence; type: biochemical; details: tested compounds and Aβ1–42 25 μM
# T4 sequence (P05067 672-713): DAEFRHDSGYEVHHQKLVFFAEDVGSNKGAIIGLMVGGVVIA
# Description: (§2) The Thioflavin T-based flurometric assay was employed to test the inhibition potency on self-induced/Cu^2+-induced Aβ1-42 aggregation.
# Aβ1–42 [3] = target: T4, Aβ1–42; assay: Cu^2+-induced Aβ1–42 aggregation, ThT fluorescence; type: biochemical; details: tested compounds and Aβ1–42 25 μM
# Protocol: Curcumin was also tested as a referenced compound.
# as §2
# [4] = test system: scopolamine-induced mice memory impairment; assay: Step-down passive avoidance task; details: 5 mg/kg, scopolamine 3 mg/kg
# Protocol: Sixty mice were randomly divided into six groups. […] After 30 min, memory impairment was induced by administering scopolamine (3 mg/kg).
# [5] = cited from earlier work
Structure (SMILES),SI (ratAChE),IC50 (ratAChE; read-out: IC50 ± SD ratAChE) [nM],SI (huAChE),IC50 (huAChE) [nM],IC50 (ratBuChE) [nM],IC50 (huBuChE) [nM],ORAC [1],also measured
"CCN(CCCCOc1ccc(-c2cc(=O)c3c(O)cc(OCCCCN(CC)Cc4ccccc4)cc3o2)cc1)Cc1ccccc1 [Compound 10h, 7–(4-(benzyl(ethyl)amino)butoxy)-2–(4-(4-(benzyl(ethyl)amino)butoxy)phenyl)-5-hydroxy-4H-chromen-4-one]",14.0,920 ± 60,23.1,160 ± 10,12900 ± 510,3700 ± 60,1.1 ± 0.03 μM of Trolox equivalent/μM of tested compound,
"CCN(CCCCCOc1ccc(-c2cc(=O)c3c(O)cc(OCCCCCN(CC)Cc4ccccc4)cc3o2)cc1)Cc1ccccc1 [Compound 10k, 7-((5-(benzyl(ethyl)amino)pentyl)oxy)-2–(4-((5-(benzyl(ethyl)amino)pentyl)oxy)phenyl)-5-hydroxy-4H-chromen-4-one]",16.4,810 ± 50,34.6,130 ± 10,13300 ± 270,4500 ± 120,1.1 ± 0.02 μM of Trolox equivalent/μM of tested compound,
"CCN(CCCCCOc1ccc(-c2cc(=O)c3c(O)cc(OCCCCCN(CC)Cc4ccccc4OC)cc3o2)cc1)Cc1ccccc1OC [Compound 10l, 7-((5-(ethyl(2-methoxybenzyl)amino)pentyl)oxy)-2–(4-((5-(ethyl(2-methoxybenzyl)amino)pentyl)oxy)phenyl)-5-hydroxy-4H-chromen-4-one]",23.2,620 ± 50,24.4,90 ± 2,14400 ± 320,2200 ± 180,1.3 ± 0.03 μM of Trolox equivalent/μM of tested compound,
"CCn1cc(C(=O)O)c(=O)c2cc(F)c(N3CCNCC3)cc21 [Norfloxacin, reference compound]",,,,,,,,Papp at 100 μg/mL (in vitro): 0.13 ± 0.01 ×10⁻⁶ cm/s
"COc1cc(/C=C/C(=O)CC(=O)/C=C/c2ccc(O)c(OC)c2)ccc1O [curcumin, reference compound]",,,,,,,,inhibition at 25 µM (Aβ1–42 [2]): 45.9 ± 0.67%; inhibition at 25 µM (Aβ1–42 [3]): 50.6 ± 0.33%
"COc1cc2c(cc1OC)C(=O)C(CC1CCN(Cc3ccccc3)CC1)C2 (stereo not drawn) [donepezil, reference compound]",,,,,,,,step-down latency [4]: 219.4 s
"O=C1CC(c2ccc(O)cc2)Oc2cc(O)cc(O)c21 (stereo not drawn) [naringenin, 5,7-dihydroxy-2–(4-hydroxyphenyl)-2,3-dihydrochromen-4-one, reference compound]",,,,,> 50000,,5.2 ± 0.29 μM of Trolox equivalent/μM of tested compound,IC50 (ratAChE; IC50 ± SD ratAChE): > 50000 nM; oral bioavailability [5]: 15%; ORAC values [1]: 5.2 eq
